Source: publication PMC3181484 (The EMBO Journal, 2011)

Key:
TREK-1 = biological target: T1, TREK-1 (Rattus norvegicus, UniProt Q920B6); format: cell-based
T1 sequence (Q920B6 1-426): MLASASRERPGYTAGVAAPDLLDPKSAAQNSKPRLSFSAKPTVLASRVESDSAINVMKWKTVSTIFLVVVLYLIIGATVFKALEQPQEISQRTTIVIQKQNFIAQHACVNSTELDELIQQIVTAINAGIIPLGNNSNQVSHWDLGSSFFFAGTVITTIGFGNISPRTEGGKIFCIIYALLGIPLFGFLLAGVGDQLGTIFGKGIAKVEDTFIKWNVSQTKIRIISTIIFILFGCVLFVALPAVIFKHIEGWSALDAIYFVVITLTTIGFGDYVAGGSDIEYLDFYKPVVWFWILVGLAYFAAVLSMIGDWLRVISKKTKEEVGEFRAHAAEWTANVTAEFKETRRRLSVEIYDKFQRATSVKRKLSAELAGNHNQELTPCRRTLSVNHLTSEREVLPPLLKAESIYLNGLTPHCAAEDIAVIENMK

TRESK = biological target: T2, TRESK (Homo sapiens, UniProt Q7Z418); experiment: QA ion block of TRESK currents, giant inside-out patches from Xenopus oocytes; format: cell-based
T2 sequence (Q7Z418 1-384): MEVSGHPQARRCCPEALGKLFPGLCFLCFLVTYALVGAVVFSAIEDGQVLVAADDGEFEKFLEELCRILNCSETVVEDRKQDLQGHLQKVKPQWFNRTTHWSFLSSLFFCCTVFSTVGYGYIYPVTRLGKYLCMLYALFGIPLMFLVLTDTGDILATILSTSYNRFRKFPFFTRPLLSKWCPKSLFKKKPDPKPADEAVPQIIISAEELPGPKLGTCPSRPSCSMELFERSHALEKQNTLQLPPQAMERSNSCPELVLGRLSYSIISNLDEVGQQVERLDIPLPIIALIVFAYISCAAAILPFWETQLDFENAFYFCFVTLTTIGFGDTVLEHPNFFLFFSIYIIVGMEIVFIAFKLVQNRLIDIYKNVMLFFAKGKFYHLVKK

CCCC[N+](CCCC)(CCCC)CCCC [TButA, Tetrabutylammonium bromide]
inhibition at 5000 µM (TREK-1; read-out: inhibition of TREK-1 current): 60% | IC50 (TRESK): 7 ± 1 µM | recovery from inhibition (kinetics) (TRESK; TRESK, 5 μM, −80 mV): fairly rapid

CC[N+](CC)(CC)CC [TEA, Tetraethylammonium chloride]
IC50 (TREK-1): ~60000 µM | IC50 (TRESK): 800 ± 100 µM
